Reference: patent US11414436B2, “Non-coordinating anion type activators containing cation having large alkyl groups” (ExxonMobil Chemical Patents Inc., priority 2018, dated 2022)
“And” between values parts separate entries of the source, which are not always exact repeats. Equal entries are not always repeated.

How the values were obtained:
[1] = Solubility studies of the activators (saturated solution in isohexane or methylcyclohexane); type: physicochemical; conditions: methylcyclohexane
[2] = Ethylene-octene copolymerization in parallel pressure reactor, non-metallocene catalyst CAT-4; conditions: catalyst CAT-4 20 nmol; activator 1.1 equiv; 100° C.; 135 psi; 1-octene 100 uL; TNOAL 0.5 umol
Experimental: (§1) Solutions of the metal complexes and activators were prepared in a drybox using toluene or methylcyclohexane. Concentrations were typically 0.2 mmol/L. Tri-n-octylaluminum (TNOAL, neat, AkzoNobel) was typically used as a scavenger. Concentration of the TNOAL solution in toluene ranged from 0.5 to 2.0 mmol/L.
(§2) Polymerizations were carried out in a parallel pressure reactor, as generally described in U.S. Pat. Nos. 6,306,658; 6,455,316; 6,489,168; WO 00/09255; and Murphy, V. et al. (2003) “A Fully Integrated High-Throughput Screening Methodology for the Discovery of New Polyolefin Catalysts: Discovery of a New Class of High Temperature Single-Site Group (IV) Copolymerization Catalysts,” J. Am. Chem. Soc., v. 125, pp. 4306-4317, each of which is fully incorporated herein by reference. […] Although the specific quantities, temperatures, solvents, reactants, reactant ratios, pressures, and other variables are frequently changed from one polymerization run to the next, the following describes a typical polymerization performed in a parallel pressure reactor.
(§3) Ethylene-Octene Copolymerization (EO).
(§4) A pre-weighed glass vial insert and disposable stirring paddle were fitted to each reaction vessel of the reactor, which contains 48 individual reaction vessels. The reactor was then closed and purged with ethylene. Each vessel was charged with enough solvent (typically isohexane) to bring the total reaction volume, including the subsequent additions, to the desired volume, typically 5 mL. 1-octene, if required, was injected into the reaction vessel and the reactor was heated to the set temperature and pressurized to the predetermined pressure of ethylene, while stirring at 800 rpm. The aluminum compound (such as tri-n-octylaluminum) in toluene was then injected as scavenger followed by addition of the activator solution (typically 1.0-1.2 molar equivalents).
(§5) The catalyst (and activator solutions for Run A) were all prepared in toluene. The catalyst solution (typically 0.020-0.080 μmol of metal complex) was injected into the reaction vessel and the polymerization was allowed to proceed until a pre-determined amount of ethylene (quench value typically 20 psi) had been used up by the reaction. Alternatively, the reaction may be allowed to proceed for a set amount of time (maximum reaction time typically 30 minutes). Ethylene was added continuously (through the use of computer controlled solenoid valves) to the autoclaves during polymerization to maintain reactor gauge pressure (P setpt, +/−2 psig) and the reactor temperature (T) was monitored and typically maintained within +/−1° C. The reaction was quenched by pressurizing the vessel with compressed air. After the reactor was vented and cooled, the glass vial insert containing the polymer product and solvent was removed from the pressure cell and the inert atmosphere glove box, and the volatile components were removed using a Genevac HT-12 centrifuge and Genevac VC3000D vacuum evaporator operating at elevated temperature and reduced pressure. The vial was then weighed to determine the yield of the polymer product. The resultant polymer was analyzed by Rapid GPC (see below) to determine the molecular weight, by FT-IR (see below) to determine percent octene incorporation, and by DSC (see below) to determine melting point (Tm).
(§6) Equivalence is determined based on the mole equivalents relative to the moles of the transition metal in the catalyst complex.
(§7) Activators of the present disclosure can also be used for activating non-metallocene catalysts for polymerization of olefins. Table 4 illustrates copolymerization of ethylene and octene using activators of the present disclosure and non-metallocene catalysts (CAT-1, CAT-2, CAT-3, and CAT-4).

[3] = Ethylene-octene copolymerization in parallel pressure reactor, non-metallocene catalyst CAT-2; conditions: catalyst CAT-2 20 nmol; activator 1.1 equiv; 100° C.; 135 psi; 1-octene 100 uL; TNOAL 0.5 umol
Experimental: as §1, §2, §3, §4, §5, §6, §7

[4] = Solubility studies of the activators (saturated solution in isohexane or methylcyclohexane); type: physicochemical
Experimental: Solubility Studies of the Activators
Procedure for Solid Activators.
A saturated solution of each of the solid ammonium borate activators was prepared by stirring an excess of the activator with either isohexane or methylcyclohexane solvent for several hours at 25° C. The mixture was then filtered and a known volume of the filtrate was evaporated to dryness in a tared vial. The vial was then weighed to determine the mass of activator that was dissolved in the aliquot. The concentration of the saturated solution is presented in millimoles of activator per liter of solution (mM).
Procedure for Activators that Form Emulsions.
A saturated solution of the activator was prepared by slowly adding the solvent to a pre-weighed amount of the activator. The final volume was determined as the minimum amount of solvent required to convert the emulsion into a homogeneous solution. The concentration of the saturated solution is presented in millimoles of activator per liter of solution (mM). Alternatively, an emulsion of the activator was prepared by adding the solvent to an excess amount of activator. The resulting emulsion was separated from the undissolved solids by decanting the emulsion into a tared vial. Solvent was then added dropwise until the emulsion became homogeneous. The mass of the final solution was measured and then the solvent was evaporated to dryness to obtain the mass of the activator. The concentration of the saturated solution is presented in millimoles of activator per liter of solution (mM).

[5] = Ethylene-octene copolymerization in parallel pressure reactor, non-metallocene catalyst CAT-3; conditions: catalyst CAT-3 20 nmol; activator 1.1 equiv; 100° C.; 135 psi; 1-octene 100 uL; TNOAL 0.5 umol
Experimental: as §1, §2, §3, §4, §5, §6, §7

[6] = Ethylene-octene copolymerization in parallel pressure reactor, non-metallocene catalyst CAT-1; conditions: catalyst CAT-1 20 nmol; activator 1.1 equiv; 100° C.; 135 psi; 1-octene 100 uL; TNOAL 0.5 umol
Experimental: as §1, §2, §3, §4, §5, §6, §7

[7] = Ethylene-octene copolymerization (EO) in parallel pressure reactor, MCN-1 (Table 6); conditions: MCN-1 = 20 nmol, activator = 22 nmol, 1-octene 100 μL, 80° C., 75 PSI
Experimental: as §3, §4, §5
A series of ethylene-octene polymerizations were performed in the parallel pressure reactor according to a similar procedure as described above. In these studies rac-dimethylsilyl-bis(indenyl)hafnium dimethyl (MCN-1) was used along with ammonium borate activators.

[8] = Ethylene homopolymerization (PE) in parallel pressure reactor, MCN-1; conditions: MCN-1 = 20 nmol, activator = 22 nmol, 80° C., 75 PSI
Experimental: Ethylene homopolymerization (PE).
A series of ethylene polymerizations were performed in the parallel pressure reactor sinilar to the procedure described above. In these studies rac-dimethylsilyl- bis(indenyl)hafnium dimethyl (MCN-1) was used along with ammonium borate activators .

[9] = RUN B: ethylene-octene polymerization in parallel pressure reactor, activator diluent toluene or methylcyclohexane; conditions: ethylene-octene copolymerization
Experimental: RUN B: Polymerization in Parallel Pressure Reactor.
A series of ethylene-octene polymerizations were performed in the parallel pressure reactor according to the procedure described above. […] In a typical experiment an automated syringe was used to introduce into the reactor the following reagents, if utilized, in the following order: isohexane (0.35 mL), an isohexane solution of TNOAL scavenger (0.005 M, 60 μL), additional isohexane (0.35 mL), a toluene solution of the respective polymerization catalyst (150 μL, 0.4 mM, 20 nm [cat]/100 μL [toluene]), additional isohexane (0.35 mL), a toluene or methylcyclohexane solution of the respective activator (150 μL, 0.4 mM, (20 nm [act]/100 μL[ diluent])), then additional isohexane so that the total solvent volume for each run was 5 mL. Catalyst and activator were used in a 1:1 ratio. Each reaction was performed at a specified temperature range between 50 and 120° C., typically 95° C., while applying about 100 psig of ethylene (monomer) gas. Each reaction was allowed to run for about 1 hour (˜3600 seconds) or until approximately 20 psig of ethylene gas uptake was observed, at which point the reactions were quenched with air (˜300 psig). When sufficient polymer yield was attained (e.g., at least ˜10 mg), the polyethylene product was analyzed by Rapid GPC, described below.
In a typical experiment, the anilinium borate activators were combined with toluene or methylcyclohexane as diluent and introduced to the parallel, pressure reactor via syringe. By this mechanism of activator introduction, only well dissolved activators could be delivered to the reactor providing a means to discriminate between the polymerization performance of long chain soluble anilinium borates vs. conventional anilinium borates. Following addition of activator, the catalyst Cat 1 was introduced, via syringe as well-dissolved toluene solution and the polymerization was conducted per the methodology described above.

[10] = Propylene homopolymerization in parallel pressure reactor, MCN-1 with ammonium borate activators
Source text: Polymerization in Parallel Pressure Reactor
Solvents, polymerization-grade toluene, and isohexane were supplied by ExxonMobil Chemical Company and purified by passing through a series of columns: two 500 cc Oxyclear cylinders in series from Labclear (Oakland, Calif.), followed by two 500 cc columns in series packed with dried 3 Å mole sieves (8-12 mesh; Aldrich Chemical Company), and two 500 cc columns in series packed with dried 5 Å mole sieves (8-12 mesh; Aldrich Chemical Company). 1-octene (C8) and 1-hexene (C6) (98%, Aldrich Chemical Company) were dried by stirring over NaK overnight followed by filtration through basic alumina (Aldrich Chemical Company, Brockman Basic 1).
as §1, §2
Catalyst systems dissolved in solution were used in the polymerization examples below, unless specified otherwise.
RUN A: Propylene Homopolymerization (PP).
The reactor was prepared as described above and purged with propylene. For the examples in Table 2, the catalyst and activator solutions were prepared in toluene. […] Isohexane was then injected into each vessel at room temperature followed by a predetermined amount of propylene gas. The reactor was heated to the set temperature while stirring at 800 rpm, and the scavenger, activator and catalyst solutions were injected sequentially to each vessel. The polymerization was allowed to proceed as described previously.
A series of propylene polymerizations were performed in parallel pressure reactors (PPRs) developed by Symyx Technologies, Inc. In these polymerizations, the metallocene rac-dimethylsilyl-bis(indenyl)hafnium dimethyl (MCN-1) was used along with several different ammonium borate activators. Polymerizations were performed at 85° C. and 100° C.
Propylene homopolymerization (PP).
A series of propylene polymerizations were performed in the parallel pressure reactor similar to the procedure described above. In these studies rac-dimethylsilyl-bis(indenyl)hafnium dimethyl (MCN-1) was used along with ammonium borate activators.

Compound | activity [2] | activity [3] | activity [5] | activity [6] | activity [7] | activity [8] | further results
CCCCCCCCCCCCCCCCCC[NH+](CCCCCCCCCCCCCCCCCC)c1ccc(C)cc1.Fc1c(F)c(F)c([B-](c2c(F)c(F)c(F)c(F)c2F)(c2c(F)c(F)c(F)c(F)c2F)c2c(F)c(F)c(F)c(F)c2F)c(F)c1F [DOdTH-BF20, 4-methyl-N,N-dioctadecylbenzenaminium-BF20] | 46 kg/mmol/h and 48 kg/mmol/h | 1267 kg/mmol/h and 1154 kg/mmol/h | 647 kg/mmol/h and 732 kg/mmol/h | 3716 kg/mmol/h and 3736 kg/mmol/h |  |  | Solubility limit in MeCy (wt % at 25° C.) [1]: 19 wt %; Solubility limit in i-hexane (mM at 25° C.) ([4]; isohexane): 19 mM; Solubility limit in i-hexane (wt % at 25° C.) ([4]; isohexane): 3.7 wt %; Solubility limit in MeCy (mM at 25° C.) ([4]; methylcyclohexane): 110 mM
CCCCCCCCCCCCCCCCCC[NH+](C)c1ccc(CCCCCCCCCCC)cc1.Fc1c(F)c(F)c([B-](c2c(F)c(F)c(F)c(F)c2F)(c2c(F)c(F)c(F)c(F)c2F)c2c(F)c(F)c(F)c(F)c2F)c(F)c1F [UOMAH-BF20] |  |  |  |  | 502.3 kg/mmol/h and 455.9 kg/mmol/h and 521.4 kg/mmol/h and 421.0 kg/mmol/h | 332.5 kg/mmol/h and 317.6 kg/mmol/h and 310.3 kg/mmol/h and 400.0 kg/mmol/h | 
CCCCCCCCCCCCCCCCCC[NH+](C)c1ccc(CCCCCCCCCCC)cc1.Fc1c(F)c(F)c2c(F)c([B-](c3c(F)c(F)c4c(F)c(F)c(F)c(F)c4c3F)(c3c(F)c(F)c4c(F)c(F)c(F)c(F)c4c3F)c3c(F)c(F)c4c(F)c(F)c(F)c(F)c4c3F)c(F)c(F)c2c1F [UOMAH-BF28, 4-Undecyl-N-methyl-N-octadecylanilinium-BF28] |  |  |  |  | 366.1 kg/mmol/h and 358.9 kg/mmol/h | 250.9 kg/mmol/h and 186.5 kg/mmol/h | 
N,N-Dimethylanilinium tetrakis(pentafluorophenyl)borate [DMAH-BF20, reference compound] | 76 kg/mmol/h and 45 kg/mmol/h | 1140 kg/mmol/h and 916 kg/mmol/h | 819 kg/mmol/h and 698 kg/mmol/h | 2977 kg/mmol/h and 2469 kg/mmol/h | 644.4 kg/mmol/h and 509.4 kg/mmol/h | 288.7 kg/mmol/h and 407.1 kg/mmol/h | quantity of polymer obtained with methylcyclohexane as diluent ([9]; Cat 1, activator in methylcyclohexane): insufficient for analysis; activity ([9]; Cat 1 (MCN-1), activator diluent Toluene, listed as C1): 764.2 kg/mmol/h and 675.0 kg/mmol/h and 659.1 kg/mmol/h and 680.5 kg/mmol/h
N-methyl-4-nonadecyl-N-octadecylanilinium tetrakis(pentafluorophenyl)borate [NOMAH-BF20] |  |  |  |  | 430.9 kg/mmol/h and 414.1 kg/mmol/h and 478.7 kg/mmol/h and 409.6 kg/mmol/h | 215.4 kg/mmol/h and 237.5 kg/mmol/h and 399.2 kg/mmol/h and 340.1 kg/mmol/h | 
N-methyl-4-nonadecyl-N-octadecylanilinium tetrakis(perfluoronaphthalen-2-yl)borate [NOMAH-BF28] |  |  |  |  | 302.1 kg/mmol/h and 321.1 kg/mmol/h and 300.0 kg/mmol/h and 345.5 kg/mmol/h | 213.1 kg/mmol/h and 202.3 kg/mmol/h and 173.6 kg/mmol/h and 272.1 kg/mmol/h | average catalyst activity, comparison of the four activators (FIG. 6) ([10]; MCN-1, polypropylene at 100° C., Table 7 runs): highest average activities; activity ([10]; propylene 150 psi, 100° C., MCN-1 = 30 nmol, activator = 33 nmol, isohexane, TNOAL 500 nmol): 141 kg/mmol/h and 208 kg/mmol/h and 193 kg/mmol/h and 210 kg/mmol/h and 181 kg/mmol/h and 178 kg/mmol/h and 223 kg/mmol/h and 207 kg/mmol/h
